# Experimental data taken from ChEMBL document CHEMBL1255377, “Synergy of human immunodeficiency virus protease inhibitors with chloroquine against Plasmodium falciparum in vitro and Plasmodium chabaudi in vivo” (Antimicrob Agents Chemother, 2008).
# Calls of active or inactive are those of the source. The rule behind the calls is not given here.
# Legend:
# Assay type in all cases: functional, organism-based
# Plasmodium falciparum [1] = assay: Antimicrobial activity against chloroquine-resistant Plasmodium falciparum 3D7 infected in human erythrocytes assessed as potentiation of choloroquine-mediated antimalarial activity by light microscopy
# Plasmodium falciparum [2] = assay: Antimicrobial activity against chloroquine-resistant Plasmodium falciparum Dd2 infected in human erythrocytes assessed as potentiation of choloroquine-mediated antimalarial activity by light microscopy
# Plasmodium chabaudi [3] = assay: Antimicrobial activity against chloroquine-resistant Plasmodium chabaudi ASCQ infected in NIH mice (Mus musculus) assessed as potentiation of 2.5 mg/kg chloroquine-mediated antimalarial activity at 100 mg/kg, perorally administered after 72 hrs post inoculation measured on day 4 post infection
# Plasmodium chabaudi [4] = assay: Antimicrobial activity against chloroquine-resistant Plasmodium chabaudi ASCQ infected in NIH mice (Mus musculus) at 2.5 mg/kg, perorally administered after 72 hrs post inoculation measured on day 4 post infection; set-up: dose 2.5 mg/kg
# Plasmodium chabaudi [5] = assay: Antimicrobial activity against chloroquine-sensitive Plasmodium chabaudi ASS infected in NIH mice (Mus musculus) assessed as potentiation of 2.5 mg/kg chloroquine-mediated antimalarial activity at 100 mg/kg, perorally administered after 72 hrs post inoculation measured on day 4 post infection
# Plasmodium chabaudi [6] = assay: Antimicrobial activity against chloroquine-resistant Plasmodium chabaudi ASCQ infected in NIH mice (Mus musculus) assessed as potentiation of 2.5 mg/kg chloroquine-mediated antimalarial activity at 10 to 160 mg/kg, perorally administered after 72 hrs post inoculation measured on day 4 post infection
# Plasmodium chabaudi [7] = assay: Antimicrobial activity against chloroquine-resistant Plasmodium chabaudi ASCQ infected in NIH mice (Mus musculus) at 10 to 160 mg/kg, perorally administered after 72 hrs post inoculation measured on day 4 post infection
SMILES,Activity (Plasmodium falciparum [1]),Activity (Plasmodium falciparum [2]),Activity (Plasmodium chabaudi [3]),Activity (Plasmodium chabaudi [4]),Activity (Plasmodium chabaudi [5]),Activity (Plasmodium chabaudi [6]),Activity (Plasmodium chabaudi [7])
CC(C)(C)NC(=O)[C@@H]1C[C@@H]2CCCC[C@@H]2CN1C[C@@H](O)[C@H](Cc1ccccc1)NC(=O)[C@H](CC(N)=O)NC(=O)c1ccc2ccccc2n1,Active,Active,Active,–,–,–,–
CCN(CC)CCCC(C)Nc1ccnc2cc(Cl)ccc12 (centres undefined),–,–,–,inactive,–,–,–
Cc1c(O)cccc1C(=O)N[C@@H](CSc1ccccc1)[C@H](O)CN1C[C@H]2CCCC[C@H]2C[C@H]1C(=O)NC(C)(C)C,Active,Active,Active,–,–,–,–
CC(C)c1nc(CN(C)C(=O)N[C@H](C(=O)N[C@@H](Cc2ccccc2)C[C@H](O)[C@H](Cc2ccccc2)NC(=O)OCc2cncs2)C(C)C)cs1,Active,Active,Active,–,Active,Active,Active
COC(=O)N[C@H](C(=O)N[C@@H](Cc1ccccc1)[C@@H](O)CN(Cc1ccc(-c2ccccn2)cc1)NC(=O)[C@@H](NC(=O)OC)C(C)(C)C)C(C)(C)C,Active,Active,Active,–,–,–,–
Cc1cccc(C)c1OCC(=O)N[C@@H](Cc1ccccc1)[C@@H](O)C[C@H](Cc1ccccc1)NC(=O)[C@H](C(C)C)N1CCCNC1=O,Active,Active,inactive,–,–,–,–
